Earlier results, collected in US20250205268A1, “TREATMENT OF VIRUSES WITH ANTIVIRAL NUCLEOSIDES” (priority 2021, published 2025).

System: pestivirus and hepacivirus
Settings: […] CHEMOTHER, 2003, 47 (1): 244-54; cited from earlier work

O=c1nc(NO)ccn1[C@@H]1O[C@H](CO)[C@@H](O)[C@H]1O [β-D-N(4)-hydroxycytidine, 1-((2R,3R,4S,5R)-3,4-dihydroxy-5-(hydroxymethyl)tetrahydrofuran-2-yl)-4-(hydroxyamino)pyrimidin-2 (1H)-one]
antiviral activities: antipestivirus and antihepacivirus activities
